Laboratory results as given in PubChem BioAssay (NCI).
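GI50 marks 50% less growth. At the TGI there is no net growth.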

Columns and labels:
Test in all cases: inhibition of tumour cell growth, NCI panel, 384-well format
[1] = test system: SK-MEL-5 melanoma
[2] = test system: MOLT-4 leukemia
[3] = test system: A498 renal
[4] = test system: SW-620 colon
[5] = test system: TK-10 renal
[6] = test system: OVCAR-5 ovarian
[7] = test system: SR leukemia
[8] = test system: IGROV1 ovarian
[9] = test system: MDA-MB-468 breast
[10] = test system: OVCAR-8 ovarian
[11] = test system: MCF7 breast
[12] = test system: CAKI-1 renal
[13] = test system: U251 glioblastoma

COC1(C(=O)N2Cc3nc(Cl)nc(N[C@H](C)c4cc(N)cc(C(F)(F)F)c4)c3C2)CCOCC1
GI50 [1]: 15 µM | TGI [1]: 28.4 µM | GI50 [2]: 8.48 µM | TGI [2]: 21 µM | GI50 [3]: 14.1 µM | TGI [3]: 35.3 µM | GI50 [4]: 17.9 µM | TGI [4]: 40.2 µM | GI50 [5]: 14.9 µM | TGI [5]: 35.3 µM | GI50 [6]: 23.2 µM | TGI [6]: 75 µM | GI50 [7]: 10.5 µM | TGI [7]: 22.4 µM | GI50 [8]: 16.1 µM | TGI [8]: 33.6 µM | GI50 [9]: 8.68 µM | TGI [9]: 24.8 µM | GI50 [10]: 18.4 µM | TGI [10]: 46.1 µM | GI50 [11]: 13.4 µM | TGI [11]: 30 µM | GI50 [12]: 6.99 µM | TGI [12]: 35.4 µM | GI50 [13]: 15.1 µM | TGI [13]: 29.7 µM
